This note sets out measurements from patent US10336702B2, “Pharmaceutically active compounds” (BERGENBIO ASA, priority 2015, dated 2019).

The target in one assay is T1, Akt3 (Homo sapiens, UniProt Q9Y243).
T1 construct: unspecified tag, removed (detagged) (cleaved yes); purchased SignalChem and Proteros (Akt3); Merck Millipore (PDK1) 14-452 (PDK1); none given for Akt3
In words: Akt activation assay (PDK1-mediated activation, LANCE Ultra crosstide TR-FRET), Akt3. It is filed as biochemical. The following applies: read-out: Biological Assay 1 IC50 (nM) Akt3. An outline of the steps: (§1)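 Unactivated Akt (5 nM Akt1, 15 or 5 nM Akt2, 3 or 5 nM Akt3, by supplier) preincubated with compound, then activated by 5 nM PDK1 on DOPS/DOPC/PtdIns(3,4,5)P3 vesicles with 100 μM ATP and 100 nM Ulight-crosstide, pH 7.5, 30 min. Eu-anti-phospho-crosstide TR-FRET (665/615 nm); IC50 by 4-parameter fit.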
(In TR-FRET formats the signal depends on donor and acceptor labels being close together.)

The target in a further assay is T2, p-Akt1 in LNCaP cells (Homo sapiens, UniProt P31749).
T2 construct: SureFire assays to detect cellular p-Akt1, p-Akt2 and p-Akt3 levels in WM115 cells (Akt2/3) and LNCaP cells (Akt1); endogenous in cells; host or cells: LNCaP (ECACC 89110211)
Kind of assay: Phospho-Akt cellular SureFire assay, p-Akt1 in LNCaP cells. In kind it is cell-based. The note with it: read-out: Biological Assay 2 IC50 (nM) Akt1 LNCaP. An outline of the steps: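 LNCaP cells, 5×10^4/well, seeded overnight, switched to 0.1% FBS medium without insulin stimulation, then compound for 15 min at 37 °C (0.3% DMSO). Lysate p-Akt1 (pThr308) by AlphaScreen SureFire, two 2 h incubations at room temperature; IC50 by 4-parameter fit.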

Another assay has as its target T3, p-Akt3 in WM115 cells (Homo sapiens, UniProt Q9Y243).
T3 construct: SureFire assays to detect cellular p-Akt1, p-Akt2 and p-Akt3 levels in WM115 cells (Akt2/3) and LNCaP cells (Akt1); endogenous in cells; host or cells: WM115 (ECACC 91061232), insulin-stimulated
Kind of assay: Phospho-Akt cellular SureFire assay, p-Akt3 in WM115 cells. In kind it is cell-based. The note with it: insulin stimulated, read-out: Biological Assay 2 IC50 (nM) Akt3 WM115. An outline of the steps:
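WM115 cells were serum-reduced to 0.1% FBS, stimulated with 100 nM insulin for 10 min, then exposed to compound (0.3% DMSO) for 15 min at 37 °C. Lysates were assayed for Thr308-phosphorylated Akt3 by AlphaScreen SureFire using an isoform-specific total Akt3 capture antibody. IC50 was derived from a 4-parameter fit.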

Another assay addresses T4, Akt2 (Homo sapiens, UniProt P31751).
T4 construct: unspecified tag, removed (detagged) (cleaved yes); purchased SignalChem and Proteros (Akt2); Merck Millipore (PDK1) 14-452 (PDK1); none given for Akt2
In words: Akt activation assay (PDK1-mediated activation, LANCE Ultra crosstide TR-FRET), Akt2. In kind it is biochemical. The note with it: read-out: Biological Assay 1 IC50 (nM) Akt2. An outline of the steps: as §1

The target of a further assay is T5, p-Akt2 in WM115 cells (Homo sapiens, UniProt P31751).
T5 construct: SureFire assays to detect cellular p-Akt1, p-Akt2 and p-Akt3 levels in WM115 cells (Akt2/3) and LNCaP cells (Akt1); endogenous in cells; host or cells: WM115 (ECACC 91061232), insulin-stimulated
In words: Phospho-Akt cellular SureFire assay, p-Akt2 in WM115 cells. The following applies: insulin stimulated, read-out: Biological Assay 2 IC50 (nM) Akt2 WM115. It is filed as cell-based. An outline of the steps:
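WM115 cells in 0.1% FBS medium stimulated 10 min with 100 nM insulin, then exposed to compound for 15 min at 37° C (0.3% DMSO final). Lysates assayed by AlphaScreen with anti-(pThr308)Akt and isoform-specific total Akt2 antibodies; IC50 from 4-parameter fit.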

For the next assay, the target named is T6, Akt1 (Homo sapiens, UniProt P31749).
T6 construct: unspecified tag, removed (detagged) (cleaved yes); purchased SignalChem and Proteros (Akt1); Merck Millipore (PDK1) 14-452 (PDK1); none given for Akt1
Kind of assay: Akt activation assay (PDK1-mediated activation, LANCE Ultra crosstide TR-FRET), Akt1. In kind it is biochemical. The note with it: read-out: Biological Assay 1 IC50 (nM) Akt1. An outline of the steps:
as §1

T3 sequence (Q9Y243 whole entry): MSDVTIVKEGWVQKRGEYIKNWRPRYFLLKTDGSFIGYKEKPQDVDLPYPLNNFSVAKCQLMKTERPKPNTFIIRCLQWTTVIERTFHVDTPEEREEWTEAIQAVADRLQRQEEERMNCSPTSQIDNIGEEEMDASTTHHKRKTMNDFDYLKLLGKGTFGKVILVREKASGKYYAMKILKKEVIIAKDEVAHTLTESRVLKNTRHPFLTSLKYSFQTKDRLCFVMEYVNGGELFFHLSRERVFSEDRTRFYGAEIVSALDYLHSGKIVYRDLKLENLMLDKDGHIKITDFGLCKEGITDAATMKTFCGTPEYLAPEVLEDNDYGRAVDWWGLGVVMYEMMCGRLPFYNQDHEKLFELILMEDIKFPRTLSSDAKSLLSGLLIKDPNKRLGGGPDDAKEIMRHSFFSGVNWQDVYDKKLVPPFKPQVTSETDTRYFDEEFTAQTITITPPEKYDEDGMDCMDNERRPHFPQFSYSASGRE
T1 sequence (Q9Y243 whole entry): as above
T6 sequence (P31749 whole entry): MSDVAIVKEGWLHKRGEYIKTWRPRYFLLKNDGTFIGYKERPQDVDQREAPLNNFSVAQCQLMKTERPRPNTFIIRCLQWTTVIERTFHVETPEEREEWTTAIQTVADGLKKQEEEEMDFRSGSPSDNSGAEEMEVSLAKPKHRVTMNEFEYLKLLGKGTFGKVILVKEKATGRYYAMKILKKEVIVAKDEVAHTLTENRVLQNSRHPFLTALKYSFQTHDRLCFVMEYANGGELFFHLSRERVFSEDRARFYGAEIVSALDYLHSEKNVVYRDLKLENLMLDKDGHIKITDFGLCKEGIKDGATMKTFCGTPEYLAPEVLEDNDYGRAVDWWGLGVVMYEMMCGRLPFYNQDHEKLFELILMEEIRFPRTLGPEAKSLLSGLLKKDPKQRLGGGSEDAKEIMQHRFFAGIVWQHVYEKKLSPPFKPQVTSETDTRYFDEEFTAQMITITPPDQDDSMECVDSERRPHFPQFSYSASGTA
T2 sequence (P31749 whole entry): as above
T5 sequence (P31751 whole entry): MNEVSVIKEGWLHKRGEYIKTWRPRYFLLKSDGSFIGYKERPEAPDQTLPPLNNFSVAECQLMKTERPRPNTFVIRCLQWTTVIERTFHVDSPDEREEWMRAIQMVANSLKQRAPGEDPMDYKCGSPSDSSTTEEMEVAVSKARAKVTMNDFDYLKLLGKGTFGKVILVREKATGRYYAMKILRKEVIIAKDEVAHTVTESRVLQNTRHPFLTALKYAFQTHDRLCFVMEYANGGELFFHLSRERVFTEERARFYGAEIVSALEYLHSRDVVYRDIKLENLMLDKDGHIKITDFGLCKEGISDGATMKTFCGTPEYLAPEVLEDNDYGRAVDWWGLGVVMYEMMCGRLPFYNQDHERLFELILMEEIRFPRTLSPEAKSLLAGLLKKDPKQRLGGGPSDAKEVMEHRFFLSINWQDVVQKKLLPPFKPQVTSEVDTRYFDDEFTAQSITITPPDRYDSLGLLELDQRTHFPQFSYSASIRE
T4 sequence (P31751 whole entry): as above

With `CC(=O)N(C)[C@H]1CC[C@H](CC(=O)Nc2cc(-c3ccccc3)c(-c3ccc(C(C)(C)N)cc3)cn2)CC1` [Example 63, N-(5-(4-(2-aminopropan-2-yl)phenyl)-4-phenylpyridin-2-yl)-2-(trans-4-(N-methylacetamido)cyclohexyl)acetamide], the IC50 (as a rule, the concentration needed to halve the response being measured) is 300 nM at Akt3; over 30000 nM on p-Akt1 in LNCaP cells; 360 nM on p-Akt3 in WM115 cells; over 30000 nM at Akt2; over 28000 nM on p-Akt2 in WM115 cells; over 30000 nM on Akt1.
For `CC(C)(N)c1ccc(-c2cnc(NC(=O)C[C@H]3CC[C@H](N4CCOC4=O)CC3)cc2-c2ccccc2)cc1` [Example 64, N-(5-(4-(2-aminopropan-2-yl)phenyl)-4-phenylpyridin-2-yl)-2-(trans-4-(2-oxooxazolidin-3-yl)cyclohexyl)acetamide], the half-inhibitory concentration (IC50) on Akt3 was 180 nM; at p-Akt1 in LNCaP cells, over 30000 nM; on p-Akt3 in WM115 cells it was 210 nM; at Akt2, 2800 nM; at p-Akt2 in WM115 cells, 6600 nM; at Akt1, over 30000 nM.
As for `CC(C)(N)c1ccc(-c2nnc(NC(=O)C[C@H]3CC[C@H](N4CCOC4=O)CC3)cc2-c2ccccc2)cc1` [Example 65, N-(6-(4-(2-aminopropan-2-yl)phenyl)-5-phenylpyridazin-3-yl)-2-(trans-4-(2-oxooxazolidin-3-yl)cyclohexyl)acetamide], the half-inhibitory concentration (IC50) was 61 nM on Akt3; over 30000 nM on p-Akt1 in LNCaP cells; 190 nM at p-Akt3 in WM115 cells; 4100 nM on Akt2; 6500 nM at p-Akt2 in WM115 cells; over 30000 nM on Akt1.
Consider `NC1(c2ccc(-c3nnc(NC(=O)C[C@H]4CC[C@H](N5CCOC5=O)CC4)cc3-c3ccccc3)cc2)CCC1` [Example 66, N-(6-(4-(1-aminocyclobutyl)phenyl)-5-phenylpyridazin-3-yl)-2-(trans-4-(2-oxooxazolidin-3-yl)cyclohexyl)acetamide], for which the IC50 at Akt3 was 5 nM; at p-Akt1 in LNCaP cells it was 9800 nM; on p-Akt3 in WM115 cells, 48 nM; on Akt2, 150 nM; on p-Akt2 in WM115 cells it was 940 nM; on Akt1 it was 7200 nM.
For the compound `COC(=O)N(C)[C@H]1CC[C@H](CC(=O)Nc2cc(-c3ccccc3)c(-c3ccc([C@]4(N)C[C@](C)(O)C4)cc3)cn2)CC1` [Example 67, Methyl (trans-4-(2-((5-(4-(trans-1-amino-3-hydroxy-3-methylcyclobutyl)phenyl)-4-phenylpyridin-2-yl)amino)-2-oxoethyl)cyclohexyl)(methyl)carbamate], the concentration for half-maximal inhibition (IC50) at Akt3 was 8 nM; on p-Akt1 in LNCaP cells it was over 9300 nM; at p-Akt3 in WM115 cells it was 37 nM; at Akt2, 180 nM; on p-Akt2 in WM115 cells, 1500 nM; on Akt1, over 6500 nM.
Consider `CC(C)(N)c1ccc(-c2nnc(NC(=O)C[C@H]3CC[C@H](N4CCOC4=O)CC3)nc2-c2ccccc2)cc1` [Example 69, N-(6-(4-(2-aminopropan-2-yl)phenyl)-5-phenyl-1,2,4-triazin-3-yl)-2-(trans-4-(2-oxooxazolidin-3-yl)cyclohexyl)acetamide], for which the IC50 was 1800 nM on Akt3; over 30000 nM at p-Akt1 in LNCaP cells; 480 nM on p-Akt3 in WM115 cells; over 30000 nM at Akt2; over 30000 nM on p-Akt2 in WM115 cells; over 30000 nM on Akt1.
For `NC1(c2ccc(-c3cnc(NC(=O)C[C@H]4CC[C@H](N5CCOC5=O)CC4)cc3-c3ccsc3)cc2)CCC1` [Example 70, N-(5-(4-(1-aminocyclobutyl)phenyl)-4-(thiophen-3-yl)pyridin-2-yl)-2-(trans-4-(2-oxooxazolidin-3-yl)cyclohexyl)acetamide], the IC50 is 42 nM at Akt3; over 30000 nM at p-Akt1 in LNCaP cells; 39 nM at p-Akt3 in WM115 cells; 830 nM at Akt2; 910 nM on p-Akt2 in WM115 cells; over 30000 nM at Akt1.
Take `CN(C(=O)C1CC1)[C@H]1CC[C@H](CC(=O)Nc2cc(-c3ccccc3)c(-c3ccc([C@]4(N)C[C@H](F)C4)cc3)nn2)CC1` [Example 71, N-(trans-4-(2-((6-(4-(trans-1-amino-3-fluorocyclobutyl)phenyl)-5-phenylpyridazin-3-yl)amino)-2-oxoethyl)cyclohexyl)-N-methylcyclopropanecarboxamide]: the IC50 was found to be 16 nM at Akt3; 9100 nM on p-Akt1 in LNCaP cells; 44 nM at p-Akt3 in WM115 cells; 350 nM on Akt2; 1300 nM on p-Akt2 in WM115 cells; 10000 nM on Akt1.
In the case of `CC(=O)N(C)[C@H]1CC[C@H](CC(=O)Nc2cc(-c3ccccc3)c(-c3ccc(C4(N)CC4)cc3)nn2)CC1` [Example 72, N-(6-(4-(1-aminocyclopropyl)phenyl)-5-phenylpyridazin-3-yl)-2-(trans-4-(N-methylacetamido)cyclohexyl)acetamide], the half-inhibitory concentration (IC50) on Akt3 was 10 nM; at p-Akt1 in LNCaP cells it was over 7500 nM; on p-Akt3 in WM115 cells it was 35 nM; on Akt2 it was 460 nM; at p-Akt2 in WM115 cells, 1400 nM; at Akt1 it was over 22000 nM.
As to `CC(=O)N(C)[C@H]1CC[C@H](CC(=O)Nc2cc(-c3ccccc3)c(-c3ccc(C4(N)CC(F)(F)C4)cc3)nn2)CC1` [Example 73, N-(6-(4-(1-amino-3,3-difluorocyclobutyl)phenyl)-5-phenylpyridazin-3-yl)-2-(trans-4-(N-methylacetamido)cyclohexyl)acetamide], the half-inhibitory concentration (IC50) is 22 nM at Akt3; over 17000 nM on p-Akt1 in LNCaP cells; 66 nM on p-Akt3 in WM115 cells; 540 nM at Akt2; 12000 nM at p-Akt2 in WM115 cells; over 30000 nM at Akt1.
As for `N[C@]1(c2ccc(-c3nnc(NC(=O)C[C@H]4CC[C@H](N5CCCC5=O)CC4)cc3-c3ccccc3)cc2)C[C@@H](F)C1` [Example 74, N-(6-(4-(trans-1-amino-3-fluorocyclobutyl)phenyl)-5-phenylpyridazin-3-yl)-2-(trans-4-(2-oxopyrrolidin-1-yl)cyclohexyl)acetamide], the IC50 on Akt3 is 4 nM; on p-Akt1 in LNCaP cells, over 30000 nM; at p-Akt3 in WM115 cells, 40 nM; on Akt2, 190 nM; at p-Akt2 in WM115 cells, 1700 nM; at Akt1, over 30000 nM.
`CC(=O)N(C)[C@H]1CC[C@H](CC(=O)Nc2cc(-c3ccsc3)c(-c3ccc([C@]4(N)C[C@H](F)C4)cc3)nn2)CC1` [Example 75, N-(6-(4-(trans-1-amino-3-fluorocyclobutyl)phenyl)-5-(thiophen-3-yl)pyridazin-3-yl)-2-(trans-4-(N-methylacetamido)cyclohexyl)acetamide]: the half-inhibitory concentration (IC50) on Akt3 was 18 nM; at p-Akt1 in LNCaP cells, over 30000 nM; at p-Akt3 in WM115 cells it was 46 nM; on Akt2 it was 580 nM; at p-Akt2 in WM115 cells, 3200 nM; on Akt1, over 16000 nM.
On to `CC(=O)N(C)[C@H]1CC[C@H](CC(=O)Nc2cc(-c3ccccn3)c(-c3ccc(C4(N)CCC4)cc3)cn2)CC1` [Example 76, N-(5′-(4-(1-aminocyclobutyl)phenyl)-[2,4′-bipyridin]-2′-yl)-2-(trans-4-(N-methylacetamido)cyclohexyl)acetamide], for which the IC50 is 1000 nM on Akt3; over 30000 nM at p-Akt1 in LNCaP cells; 140 nM at p-Akt3 in WM115 cells; over 30000 nM on Akt2; over 30000 nM on p-Akt2 in WM115 cells; over 30000 nM on Akt1.
For the compound `COC(=O)N(C)[C@H]1CC[C@H](CC(=O)Nc2cnc(-c3ccc([C@]4(N)C[C@H](F)C4)cc3)c(-c3ccccc3)c2)CC1` [Example 77, Methyl (trans-4-(2-((6-(4-(trans-1-amino-3-fluorocyclobutyl)phenyl)-5-phenylpyridin-3-yl)amino)-2-oxoethyl)cyclohexyl)(methyl)carbamate], the IC50 was 62 nM at Akt3; over 30000 nM on p-Akt1 in LNCaP cells; 100 nM at p-Akt3 in WM115 cells; 1100 nM on Akt2; 5100 nM at p-Akt2 in WM115 cells; 7900 nM on Akt1.
